Patent EP4620466A1, “TRIMETHOXYSTYRYL DERIVATIVES FOR USE IN THE TREATMENT OF PACLITAXEL-RESISTANT CANCER” (Instituto de Investigación Biomédica de Salamanca De la …, priority 2024, dated 2025)

System: HeLa cells
Assay: Cell proliferation assay (XTT), cytostatic activity
Format: cell-based
Conditions: 72-h treatment, XTT cell proliferation kit
Protocol: […] cells were seeded in 96-well plates and incubated in the presence or the absence of the indicated compounds at concentrations ranging from 10^-5 to 10^-12 M. The cytostatic activity was measured after 72-h treatments using the XTT (sodium 3'-[1-(phenylaminocarbonyl)-3,4-tetrazolium]-bis(4- methoxy-6-nitro)-benzenesulfonic acid hydrate) cell proliferation kit (Roche Molecular Biochemicals; Mannheim, Germany) following the manufacturer's specifications. Each condition was seeded in triplicate, and experiments were repeated three times to calculate IC values by non-linear regression fitting the data.

Molecule	IC50 (Homo sapiens) [µM]	IC50 [µM]
C=C(c1cc(Cl)nc(Cl)c1)c1ccc2c(ccn2C)c1 [Compound 56, 5-(1-(2,6-dichloropyridin-4-yl)vinyl)-1-methyl-1H-indole]	0.04	–
COc1cc(C(=O)c2ccc3c(c2)c(C(=O)O)cn3C)cc(OC)c1OC [Compound 15, 1-Methyl-5-(3,4,5-trimethoxybenzoyl)-1H-indole-3-carboxylic acid]	7	–
Cn1ccc2cc(C(=O)c3cc(Cl)nc(Cl)c3)ccc21 [Compound 55, (2,6-dichloropyridin-4-yl)(1-methyl-1H-indol-5-yl)methanone]	0.8	–
1-Methyl-5-[1-(2,3,4-trimethoxyphenyl)vinyl]-1H-indol-3-ylmethanol [Compound 18]	–	0.3
C=C(c1ccc2c(c1)c(C=NO)cn2C)c1ccc(OC)c(OC)c1OC [Compound 20, 1-Methyl-5-[1-(2,3,4-trimethoxyphenyl)vinyl]-1H-indol-3-carbaldehyde oxime]	0.034	–
COc1ccc(C(O)c2ccc3c(ccn3C)c2)c(OC)c1OC (stereo not shown) [Compound 2, (1-methyl-1H-indol-5-yl)(2,3,4-trimethoxyphenyl)methanol]	> 1	–
C=C(c1ccc2c(c1)c(C#N)cn2C)c1ccc(OC)c(OC)c1OC [Compound 24, 1-Methyl-5-[1-(2,3,4-trimethoxyphenyl)vinyl]-1H-indole-3-carbonitrile]	0.032	–
C=C(c1cc(OC)c(OC)c(OC)c1)c1ccc2c(c1)c(CO)cn2C [Compound 17, 1-Methyl-5-[1-(3,4,5-trimethoxyphenyl)vinyl]-1H-indol-3-ylmethanol]	0.31	–
COc1cc(C(=O)c2ccc3c(c2)c(C=O)cn3C)cc(OC)c1OC [Compound 9, 1-Methyl-5-[1-(3,4,5-trimethoxybenzoyl)]-1H-indole-3-carbaldehyde]	0.32	–
COc1cc(C(C)c2ccc3c(ccn3C)c2)cc(OC)c1OC (stereo not shown) [Compound 13, 1-Methyl-5-(1-(3,4,5-trimethoxyphenyl)ethyl)-1H-indole]	0.00064	–
C=C(c1ccc2c(c1)c(C=O)cn2C)c1ccc(OC)c(OC)c1OC [Compound 12, 1-Methyl-5-[1-(2,3,4-trimethoxyphenyl)vinyl]-1H-indole-3-2carbaldehyde]	0.032	–
C=C(c1cc(OC)c(OC)c(OC)c1)c1ccc2c(c1)c(C=NO)cn2C [Compound 19, 1-Methyl-5-[1-(3,4,5-trimethoxyphenyl)vinyl]-1H-indole-3-carbaldehyde oxime]	0.0062	–
C=C(c1cc(OC)c(OC)c(OC)c1)c1ccc2c(c1)c(C=NN)cn2C [Compound 21, (1-Methyl-5-[1-(3,4,5-trimethoxyphenyl)vinyl]-1H-indol-3-yl)methylene hydrazine]	0.038	–
COc1ccc(C(=O)c2ccc3c(c2)c(C=O)cn3C)c(OC)c1OC [Compound 10, 1-Methyl-5-(2,3,4-trimethoxybenzoyl)-1H-indole-3-carbaldehyde]	0.78	–
COc1ccc(/C(=N\O)c2ccc3c(ccn3C)c2)c(OC)c1OC [Compound 8, Z-(1-methyl-1H-indol-5-yl)(2,3,4-trimethoxyphenyl)methanone oxime]	0.076	–
COc1cc(/C=C\c2ccc3c(ccn3C)c2)cc(OC)c1OC [Compound 27, (Z)-1-Methyl-5-[2-(3,4,5-trimethoxyphenyl)vinyl)-1H-indole]	0.25	–
COc1ccc(C(=O)c2ccc3c(ccn3C)c2)c(OC)c1OC [Compound 4, (1-methyl-1H-indol-5-yl)(2,3,4-trimethoxyphenyl)methanone]	0.017	–
1-Methyl-5-(2,3,4- trimethoxybenzoyl)-1H-indole-3-carbonitrile [Compound 26]	–	> 1
COc1cc(C(=O)c2ccc3c(ccn3C)c2)cc(OC)c1OC [Compound 3, (1-methyl-1H-indol-5-yl)(3,4,5-trimethoxyphenyl)methanone]	0.025	–
COc1ccc(C(C)c2ccc3c(ccn3C)c2)c(OC)c1OC (stereo not shown) [Compound 14, 1-Methyl-5-(1-(2,3,4-trimethoxyphenyl)ethyl)-1H-indole]	0.31	–
COc1cc(C(O)c2ccc3c(ccn3C)c2)cc(OC)c1OC (stereo not shown) [Compound 1, (1-methyl-1H-indol-5-yl)(3,4,5-trimethoxyphenyl)methanol]	> 1	–

More lines, now with the values ahead:

IC50 (Homo sapiens) [µM]	IC50 [µM]	Molecule
> 1	–	COc1cc(C(=O)c2ccc3c(c2)c(C=O)cn3C)cc(SC)n1 [Compound 84, 5-(2-methoxy-6-(methylsulfanyl)isonicotinoyl)-1-methyl-1H-indole-3-carbaldehyde]
0.2	–	CSc1cc(C(=O)c2ccc3c(ccn3C)c2)cc(SC)n1 [Compound 73, (2,6-Bis(methylsulfanyl)pyridin-4-yl) (1-methyl-1H-indol-5-yl)methanone]
0.4	–	C=C(c1cc(OC)nc(SC)c1)c1ccc2c(c1)c(C=O)cn2C [Compound 85, 5-(1-(2-methoxy-6-(methylsulfanyl)pyridin-4-yl)vinyl)-1-methyl-1H-indole-3-carbaldehyde]
0.3	–	CSc1cc(C(=NO)c2ccc3c(c2)c(C#N)cn3C)cc(N(C)C)n1 [Compound 95, 5-((2-(dimethylamino)-6-(methylthio)pyridin-4-yl)(hydroxyimino)methyl)-1-methyl-1H-indole-3-carbonitrile]
> 1	–	C=C(c1cc(Cl)nc(Cl)c1)c1ccc2c(c1)c(C=NO)cn2C [Compound 61, 5-(1-(2,6-dichloropyridin-4-yl)vinyl)-1-methyl-1H-indole-3-carbaldehyde oxime]
0.5	–	CSc1cc(C(=NO)c2ccc3c(ccn3C)c2)cc(SC)n1 (mixture of isomers) [Compound 75, (E/Z)-(2,6-bis(methylsulfanyl)pyridin-4-yl) (1-methyl-1H-indol-5-yl)methanone oximes]
> 1	–	Cn1cc(C=NO)c2cc(C(=NO)c3cc(Cl)nc(Cl)c3)ccc21 [Compound 59, 5-((2,6-dichloropyridin-4-yl)(hydroxyimino)methyl)-1-methyl-1H-indole-3-carbaldehyde oxime]
0.8	–	COc1cc(C(=O)c2ccc3c(c2)c(C#N)cn3C)cc(SC)n1 [Compound 87, 5-(2-methoxy-6-(methylsulfanyl)isonicotinoyl)-1-methyl-1H-indole-3-carbonitrile]
0.6	–	C=C(c1cc(OC)nc(SC)c1)c1ccc2c(ccn2C)c1 [Compound 82, 5-(1-(2-methoxy-6-(methylsulfanyl)pyridin-4-yl)vinyl)-1-methyl-1H-indole]
0.6	–	C=C(c1cc(SC)nc(N(C)C)c1)c1ccc2c(c1)c(C(N)=O)cn2C [Compound 97, 5-(1-(2-(dimethylamino)-6-(methylthio)pyridin-4-yl)vinyl)-1-methyl-1H-indole-3-carboxamide]
0.1	–	C=C(c1cc(SC)nc(SC)c1)c1ccc2c(c1)c(C=O)cn2C [Compound 77, 5-(1-(2,6-bis(methylsulfanyl)pyridin-4-yl)vinyl)-1-methyl-1H-indole-3-carbaldehyde]
0.08	–	C=C(c1cc(Cl)nc(Cl)c1)c1ccc2c(c1)c(C#N)cn2C [Compound 62, 5-(1-(2,6-dichloropyridin-4-yl)vinyl)-1-methyl-1H-indole-3-carbonitrile]
0.2	–	COc1cc(C(=NO)c2ccc3c(ccn3C)c2)cc(SC)n1 [Compound 83, (2-methoxy-6-(methylsulfanyl)pyridin-4-yl)(1-methyl-1H-indol-5-yl)methanone oxime]
0.3	–	CSc1cc(C(=O)c2ccc3c(ccn3C)c2)cc(Cl)n1 [Compound 64, (2-chloro-6-(methylthio)pyridin-4-yl)(1-methyl-1H-indol-5-yl)methanone]
0.3	–	C=C(c1cc(SC)nc(N(C)C)c1)c1ccc2c(c1)c(C=O)cn2C [Compound 93, 5-(1-(2-(dimethylamino)-6-(methylthio)pyridin-4-yl)vinyl)-1-methyl-1H-indole-3-carbaldehyde]
0.2	–	COc1cc(C(=O)c2ccc3c(ccn3C)c2)cc(SC)n1 [Compound 81, (2-methoxy-6-(methylthio)pyridin-4-yl)(1-methyl-1H-indol-5-yl)methanone]
0.1	–	C=C(c1cc(Cl)nc(SC)c1)c1ccc2c(ccn2C)c1 [Compound 65, 5-(1-(2-Chloro-6-(methylsulfanyl)pyridin-4-yl)vinyl)-1-methyl-1H-indole]
> 1	–	CSc1cc(C(=O)c2ccc3c(c2)c(C=O)cn3C)cc(Cl)n1 [Compound 67, 5-(2-Chloro-6-(methylsulfanyl)isonicotinoyl)-1-methyl-1H indole-3-carbaldehyde]
0.07	–	C=C(c1cc(Cl)nc(SC)c1)c1ccc2c(c1)c(C=O)cn2C [Compound 68, 5-(1-(2-chloro-6-(methylsulfanyl)pyridin-4-yl)vinyl)-1-methyl-1H-indole-3-carbaldehyde]
0.6	–	C=C(c1cc(SC)nc(N(C)C)c1)c1ccc2c(c1)c(C#N)cn2C [Compound 96, 5-(1-(2-(dimethylamino)-6-(methylthio)pyridin-4-yl)vinyl)-1-methyl-1H-indole-3-carbonitrile]
0.2	–	C=C(c1cc(SC)nc(N(C)C)c1)c1ccc2c(ccn2C)c1 [Compound 90, N,N-dimethyl-4-(1-(1-methyl-1H-indol-5-yl)vinyl)-6-(methylthio)pyridin-2-amine]
> 1	–	CSc1cc(C(=O)c2ccc3c(c2)c(C=O)cn3C)cc(SC)n1 [Compound 76, 5-(2,6-bis(methylsulfanyl)isonicotinoyl)-1-methyl-1H-indole-3-carbaldehyde]
–	> 1	COc1cc(C(=NO)c2ccc3c(c2)c(C#N)cn3C)cc(SC)n1 [Compound 88]
0.05	–	C=C(c1cc(Cl)nc(Cl)c1)c1ccc2c(c1)c(C(N)=O)cn2C [Compound 63, 5-(1-(2,6-dichloropyridin-4-yl)vinyl)-1-methyl-1H-indole-3-carboxamide]
0.6	–	C=C(c1cc(SC)nc(SC)c1)c1ccc2c(c1)c(C(N)=O)cn2C [Compound 78, 5-(1-(2,6-bis(methylsulfanyl)pyridin-4-yl)vinyl)-1-methyl-1H-indole-3-carboxamide]
